US11304929B2, “Tosylacetate based compounds and derivatives thereof as PHGDH inhibitors” (priority 2017, dated 2022)
Like-named read-outs stand apart in the source and are kept apart here.

Target: PHGDH (Homo sapiens (Human), UniProt O43175)
Experiment: 3-Phosphoglycerate Dehydrogenase (PHGDH) Fluorescence Intensity Assay, run at two NAD/3-PG ratios: PHGDH_HIGH_NAD/3-PG (250 μM NAD/500 μM 3-PG) and PHGDH_500_NAD/3-PG (500 μM NAD/500 μM 3-PG)
Format: biochemical
[1] = 250 μM NAD/500 μM 3-PG, read-out: IC50 (PHGDH_HIGH_NAD/3-PG)
[2] = 500 μM NAD/500 μM 3-PG, read-out: IC50 (PHGDH_500_NAD/3-PG)

PHGDH, sequence (O43175 2-533 limits assumed): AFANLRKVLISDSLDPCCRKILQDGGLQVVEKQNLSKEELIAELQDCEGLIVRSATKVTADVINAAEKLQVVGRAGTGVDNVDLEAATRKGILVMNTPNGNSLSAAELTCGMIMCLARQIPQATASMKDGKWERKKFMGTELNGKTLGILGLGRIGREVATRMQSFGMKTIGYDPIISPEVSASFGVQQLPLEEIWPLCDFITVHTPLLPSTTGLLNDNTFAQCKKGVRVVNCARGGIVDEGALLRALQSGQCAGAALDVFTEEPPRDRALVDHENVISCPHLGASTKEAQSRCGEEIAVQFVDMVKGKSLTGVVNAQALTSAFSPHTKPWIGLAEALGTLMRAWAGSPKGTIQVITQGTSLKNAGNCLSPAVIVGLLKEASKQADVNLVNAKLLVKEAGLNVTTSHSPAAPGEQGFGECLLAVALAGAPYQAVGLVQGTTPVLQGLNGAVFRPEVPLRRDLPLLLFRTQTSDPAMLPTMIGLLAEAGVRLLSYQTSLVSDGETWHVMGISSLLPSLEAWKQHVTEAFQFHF

C[C@@H](NC(=O)c1cc(-c2ccc(F)cc2)nn1C)c1ccc(S(=O)(=O)CC(=O)O)cc1 [Example 04-002, 2-{4-[(1R)-1-{[3-(4-fluorophenyl)-1-methyl-1H-pyrazol-5-yl]formamido}ethyl]benzenesulfonyl}acetic acid]
IC50 [1]: 76 nM

C#Cc1cc(Cl)c2cc(C(=O)NC(C)c3ccc(S(=O)(=O)CC(=O)OC)cc3)n(C)c2c1 (stereo not shown) [Example 01-008, methyl 2-(4-{1-[(4-chloro-6-ethynyl-1-methyl-1H-indol-2-yl)formamido]ethyl}benzenesulfonyl)acetate]
IC50 [1]: 1690 nM

COC(=O)C[S+]([O-])c1ccc([C@@H](C)NC(=O)c2cc3c(Cl)cc(C)cc3n2C)cc1 (stereo partly drawn) [Example 11-009, methyl 2-{4-[(1R)-1-[(4-chloro-1,6-dimethyl-1H-indol-2-yl)formamido]ethyl]benzenesulfinyl}acetate]
IC50 [1]: 612 nM

Cc1cc(Cl)c2cc(C(=O)N[C@H](C)c3ccc(S(=O)(=O)CC(=O)OCc4ccncc4)cc3)n(C)c2c1 [Example 09-010, pyridin-4-ylmethyl 2-{4-[(1R)-1-[(4-chloro-1,6-dimethyl-1H-indol-2-yl)formamido]ethyl]benzenesulfonyl}acetate]
IC50 [1]: 175 nM

COC(=O)C[S@+]([O-])c1ccc([C@@H](C)NC(=O)c2cc3c(Cl)cc(C)cc3n2C)cc1 [Example 11-007, methyl 2-[(S)-4-[(1R)-1-[(4-chloro-1,6-dimethyl-1H-indol-2-yl)formamido]ethyl]benzenesulfinyl]acetate]
IC50 [1]: 234 nM

Cc1cc2c(cc(C(=O)N[C@H](CO)c3ccc([S@@+]([O-])CC(=O)O)cc3)n2C)c(F)c1F [Example 12-010, 2-[(S)-4-[(1S)-1-[(4,5-difluoro-1,6-dimethyl-1H-indol-2-yl)formamido]-2-hydroxyethyl]benzenesulfinyl]acetic acid]
IC50 [2]: 10 nM

COC(=O)C[S@+]([O-])c1ccc([C@@H](CO)NC(=O)c2cc3c(Cl)c(Cl)c(C)cc3n2C)cc1 [Example 11-003, methyl 2-[(S)-4-[(1S)-1-[(4,5-dichloro-1,6-dimethyl-1H-indol-2-yl)formamido]-2-hydroxyethyl]benzenesulfinyl]acetate]
IC50 [1]: 89 nM
IC50 [2]: 137 nM

Cc1cc(Cl)c2cc(C(=O)N[C@H](CO)c3ccc(S(=O)(=O)CC(=O)O)cc3)n(C)c2n1 [Example 03-013, 2-{4-[(1S)-1-({4-chloro-1,6-dimethyl-1H-pyrrolo[2,3-b]pyridin-2-yl}formamido)-2-hydroxyethyl]benzenesulfonyl}acetic acid]
IC50 [1]: 35 nM

COC(=O)C[S+]([O-])c1ccc([C@@H](C)NC(=O)c2cc3c(Cl)c(Cl)c(C)cc3n2C)cc1 (stereo partly drawn) [Example 11-001, methyl 2-{4-[(1R)-1-[(4,5-dichloro-1,6-dimethyl-1H-indol-2-yl)formamido]ethyl]benzenesulfinyl}acetate]
IC50 [1]: 296 nM
IC50 [2]: 436 nM

CC(C(=O)O)S(=O)(=O)c1ccc([C@@H](C)NC(=O)c2cc3cc(Cl)ccc3n2C)cc1 (stereo partly drawn) [Example 07-009, 2-{4-[(1R)-1-[(5-chloro-1-methyl-1H-indol-2-yl)formamido]ethyl]benzenesulfonyl}propanoic acid]
IC50 [1]: 190 nM

Cc1cc2c(cc(C(=O)N[C@H](C)c3ccc(S(=O)(=O)CC(=O)OC(C)C)cc3)n2C)c(Cl)c1Cl [Example 01-037, propan-2-yl 2-{4-[(1R)-1-[(4,5-dichloro-1,6-dimethyl-1H-indol-2-yl)formamido]ethyl]benzenesulfonyl}acetate]
IC50 [1]: 3370 nM

C[C@@H](NC(=O)c1cc(-c2ccc(F)cc2)nn1C)c1ccc(S(=O)(=O)CC(=O)OCC2COC2)cc1 [Example 10-007, oxetan-3-ylmethyl 2-{4-[(1R)-1-{[3-(4-fluorophenyl)-1-methyl-1H-pyrazol-5-yl]formamido}ethyl]benzenesulfonyl}acetate]
IC50 [1]: 714 nM

Cc1cc(Cl)c2cc(C(=O)N[C@H](CO)c3ccc(S(=O)(=O)CC(=O)OCC4(C)COC4)cc3)n(C)c2c1 [Example 09-031, (3-methyloxetan-3-yl)methyl 2-{4-[(1S)-1-[(4-chloro-1,6-dimethyl-1H-indol-2-yl)formamido]-2-hydroxyethyl]benzenesulfonyl}acetate]
IC50 [1]: 61 nM

Cc1cc(Cl)c2cc(C(=O)N[C@H](C)c3ccc(S(=O)(=O)C4(C(=O)O)CC4)cc3)n(C)c2c1 [Example 07-013, 1-{4-[(1R)-1-[(4-chloro-1,6-dimethyl-1H-indol-2-yl)formamido]ethyl]benzenesulfonyl}cyclopropane-1-carboxylic acid]
IC50 [1]: 10 nM
IC50 [2]: 15 nM

Cc1cc2c(cc(C(=O)N[C@H](CO)c3ccc(S(=O)(=O)CC(=O)O)cc3)n2C)c(Cl)c1F [Example 03-016, 2-{4-[(1S)-1-[(4-chloro-5-fluoro-1,6-dimethyl-1H-indol-2-yl)formamido]-2-hydroxyethyl]benzenesulfonyl}acetic acid]
IC50 [1]: 5 nM
IC50 [2]: 7 nM

Cc1cc2c(cc(C(=O)N[C@H](CO)c3ccc([S@+]([O-])CC(=O)O)cc3)n2C)c(F)c1F [Example 12-009, 2-[(R)-4-[(1S)-1-[(4,5-difluoro-1,6-dimethyl-1H-indol-2-yl)formamido]-2-hydroxyethyl]benzenesulfinyl]acetic acid]
IC50 [2]: 32 nM

C[C@H](C(=O)O)S(=O)(=O)c1ccc([C@@H](C)NC(=O)c2cc3cc(Cl)ccc3n2C)cc1 [Example 07-008, (2R)-2-{4-[(1R)-1-[(5-chloro-1-methyl-1H-indol-2-yl)formamido]ethyl]benzenesulfonyl}propanoic acid]
IC50 [1]: 139 nM

CC(C)OC(=O)C(C)(C)S(=O)(=O)c1ccc([C@@H](CO)NC(=O)c2cc(-c3ccc(F)cc3)nn2C)cc1 [Example 06-006, propan-2-yl 2-{4-[(1S)-1-{[3-(4-fluorophenyl)-1-methyl-1H-pyrazol-5-yl]formamido}-2-hydroxyethyl]benzenesulfonyl}-2-methylpropanoate]
IC50 [1]: 14500 nM

C[C@@H](NC(=O)c1cc2c(Cl)cc(N3CCN(C)CC3)cc2n1C)c1ccc(S(=O)(=O)CC(=O)O)cc1 [Example 03-018, 2-{4-[(1R)-1-{[4-chloro-1-methyl-6-(4-methylpiperazin-1-yl)-1H-indol-2-yl]formamido}ethyl]benzenesulfonyl}acetic acid]
IC50 [1]: 84 nM
IC50 [2]: 292 nM

Cc1cc(Cl)c2cc(C(=O)NCc3ccc(S(=O)(=O)CC(=O)OC(C)C)cc3)n(C)c2c1 [Example 01-031, propan-2-yl 2-(4-{[(4-chloro-1,6-dimethyl-1H-indol-2-yl)formamido]methyl}benzenesulfonyl)acetate]
IC50 [1]: > 20000 nM

CC(C)OC(=O)CS(=O)(=O)c1ccc([C@@H](C)NC(=O)c2cc3c(Cl)cc(N4CCN(C)CC4)cc3n2C)cc1 [Example 01-041, propan-2-yl 2-{4-[(1R)-1-{[4-chloro-1-methyl-6-(4-methylpiperazin-1-yl)-1H-indol-2-yl]formamido}ethyl]benzenesulfonyl}acetate]
IC50 [1]: 3140 nM

Cc1cc2c(cc(C(=O)N[C@H](C)c3ccc(S(=O)(=O)CC(=O)OC(C)C)cc3)n2C)c(Cl)c1F [Example 01-033, propan-2-yl 2-{4-[(1R)-1-[(4-chloro-5-fluoro-1,6-dimethyl-1H-indol-2-yl)formamido]ethyl]benzenesulfonyl}acetate]
IC50 [1]: 36500 nM

Cc1cc2c(cc(C(=O)N[C@H](C)c3ccc(S(=O)(=O)C(C)(C)C(=O)O)cc3)n2C)c(Cl)c1Cl [Example 07-015, 2-{4-[(1R)-1-[(4,5-dichloro-1,6-dimethyl-1H-indol-2-yl)formamido]ethyl]benzenesulfonyl}-2-methylpropanoic acid]
IC50 [1]: 5 nM
IC50 [2]: 9 nM

Cc1cc2c(cc(C(=O)N[C@H](CO)c3ccc([S@+]([O-])CC(=O)O)cc3)n2C)c(Cl)c1Cl [Example 12-002, 2-[(R)-4-[(1S)-1-[(4,5-dichloro-1,6-dimethyl-1H-indol-2-yl)formamido]-2-hydroxyethyl]benzenesulfinyl]acetic acid]
IC50 [1]: 3 nM
IC50 [2]: 4 nM

Cc1cc(Cl)c2cc(C(=O)N[C@H](CO)c3ccc(S(=O)(=O)CC(=O)OCCCO)cc3)n(C)c2c1 [Example 09-033, 3-hydroxypropyl 2-{4-[(1S)-1-[(4-chloro-1,6-dimethyl-1H-indol-2-yl)formamido]-2-hydroxyethyl]benzenesulfonyl}acetate]
IC50 [1]: 98 nM

Cc1cc2c(cc(C(=O)N[C@H](CO)c3ccc(S(=O)(=O)CC(=O)OCC(C)(C)O)cc3)n2C)c(Cl)c1Cl [Example 09-039, 2-hydroxy-2-methylpropyl 2-{4-[(1S)-1-[(4,5-dichloro-1,6-dimethyl-1H-indol-2-yl)formamido]-2-hydroxyethyl]benzenesulfonyl}acetate]
IC50 [2]: 168 nM

C[C@@H](NC(=O)c1cc(-c2ccccc2)nn1C)c1ccc(S(=O)(=O)CC(=O)O)cc1 [Example 04-001, 2-{4-[(1R)-1-[(1-methyl-3-phenyl-1H-pyrazol-5-yl)formamido]ethyl]benzenesulfonyl}acetic acid]
IC50 [1]: 145 nM

Cc1cc2c(cc(C(=O)N[C@H](CO)c3ccc([S@@+]([O-])CC(=O)OC4CCOCC4)cc3)n2C)c(Cl)c1Cl [Example 13-003, oxan-4-yl 2-[(S)-4-[(1S)-1-[(4,5-dichloro-1,6-dimethyl-1H-indol-2-yl)formamido]-2-hydroxyethyl]benzenesulfinyl]acetate]
IC50 [2]: 211 nM

COCCOC(=O)CS(=O)(=O)c1ccc([C@@H](C)NC(=O)c2cc3cc(C(F)(F)F)ccc3n2C)cc1 [Example 09-008, 2-methoxyethyl 2-{4-[(1R)-1-{[1-methyl-5-(trifluoromethyl)-1H-indol-2-yl]formamido}ethyl]benzenesulfonyl}acetate]
IC50 [1]: 3460 nM

Cc1cc2c(cc(C(=O)N[C@H](CO)c3ccc(S(=O)(=O)CC(=O)OC(C)C)cc3)n2C)c(Cl)c1F [Example 01-035, propan-2-yl 2-{4-[(1S)-1-[(4-chloro-5-fluoro-1,6-dimethyl-1H-indol-2-yl)formamido]-2-hydroxyethyl]benzenesulfonyl}acetate]
IC50 [1]: 466 nM
